This assay concerns T1, special icariin glycosidase.
T1 construct: gene icariin 7-O-glucosidase; native enzyme purified from culture supernatant (methanol precipitation, DEAE-cellulose DE-52); about 75 kDa by SDS-PAGE
Put plainly: Lineweaver-Burk; HPLC and TLC of products and substrate. The assay is classed as biochemical, Aspergillus sp. y48. Particulars: 45 °C, 9 h reaction, 0.4-2.0 mmol/L icariin; purified free enzyme.

Consider one compound from PMC11729362, “Icariside II Preparation from Icariin Separated from Epimedium Herbal Extract Powder by a Special Icariin Glycosidase” (Journal of Microbiology and Biotechnology, 2024).

Each structure is given as a SMILES string.

Turning to `COc1ccc(-c2oc3c(CC=C(C)C)c(O[C@@H]4O[C@H](CO)[C@@H](O)[C@H](O)[C@H]4O)cc(O)c3c(=O)c2O[C@@H]2O[C@@H](C)[C@H](O)[C@@H](O)[C@H]2O)cc1` [icariin], the Km stood at 3.55 mM.

A word on the Km: it is the concentration of substrate that gives half-maximal velocity.
